Laboratory results: US20240409557A1, “5,6-FUSED AND 6,6-FUSED BICYCLIC ALCOHOLS AND ETHERS AND COMPOSITIONS FOR USE AS 15-PROSTAGLANDIN DEHYDROGENASE MODULATORS” (AMGEN INC., priority 2023, published 2024)
pIC50: −log10 of the molar value.

Tests used:
15-PGDH in A549 cells = target: T1, 15-PGDH in A549 cells (Homo sapiens, UniProt P15428); experiment: A549 cellular 15-PGDH assay (PGE2 accumulation, HTRF); assay type: cell-based; conditions: interleukin-stimulated, inhibitor 24 hrs, PGE2 by competitive HTRF, read-out: A549 Cell Assay IC50
T1 construct: endogenous in cells; host or cells: A549
T1 sequence (P15428 1-266): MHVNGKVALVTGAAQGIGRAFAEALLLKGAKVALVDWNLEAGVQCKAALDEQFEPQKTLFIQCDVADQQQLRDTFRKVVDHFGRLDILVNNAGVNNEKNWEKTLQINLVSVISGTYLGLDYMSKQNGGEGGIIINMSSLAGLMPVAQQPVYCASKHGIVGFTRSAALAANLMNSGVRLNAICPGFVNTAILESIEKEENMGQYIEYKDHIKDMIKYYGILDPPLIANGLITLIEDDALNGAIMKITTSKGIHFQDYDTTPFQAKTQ
Outline: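 Supernatant PGE2 was quantified by competitive HTRF, in which sample PGE2 blocks FRET between a europium cryptate-labelled antibody and labelled PGE2. It came from A549 epithelial cells induced with IL-13. IC50s were calculated from the inversely proportional signal.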

[1] = target: T2, human recombinant 15-PGDH (Homo sapiens, UniProt P15428); experiment: Recombinant 15-PGDH enzymatic inhibition assay (PGDH-Lumi, NADH signal); assay type: biochemical; conditions: recombinant 15-PGDH; 15 min pre-incubation, 60 min reaction with PGE2 and NAD+, NADH signal
T2 sequence (P15428 1-266): T1 sequence (P15428 1-266)
Outline: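 Buffer 50 mM Tris pH 7.5 with 0.01% Tween-20 and […]; compound, 22 two-fold dilutions, pre-incubated with enzyme 15 min before substrate.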

| SMILES | pIC50 (15-PGDH in A549 cells) | pIC50 [1] |
| --- | --- | --- |
| Cn1cc2cc(-c3ccc4sc([C@]5(O)C[C@](C)(C#N)C5)cc4n3)cnc2n1 (single isomer, unassigned) [Compound C106T, trans-3-hydroxy-1-methyl-3-(5-(2-methyl-2H-pyrazolo[3,4-b]pyridin-5-yl)thieno[3,2-b]pyridin-2-yl)cyclobutanecarbonitrile] | 7.34 | 7.62 |
| O[C@H](c1cc2ccc(-c3cnc4[nH]ncc4c3)nc2s1)C1CC(F)(F)C1 (single isomer, unassigned) [Compound B47S] | 8.71 | 9.12 |
| Cc1nc2cc(-c3ccc4cc([C@H](O)C5CC(F)(F)C5)sc4n3)ccc2o1 (single isomer, unassigned) [Compound B46R] | 9.16 | 9.56 |
| Cn1cc2cc(-c3ccc4cc([C@H](O)C5COC5)sc4n3)cnc2n1 (single isomer, unassigned) [Compound B28R] | 9.80 | 9.37 |
| OC1(c2cc3ccc(-c4ccc5[nH]ncc5c4)nc3s2)CC(F)(F)C1 [Compound C42, 3,3-difluoro-1-(6-(1H-indazol-5-yl)thieno[2,3-b]pyridin-2-yl)cyclobutanol] | 8.17 | 7.62 |
| Cn1cc2cc(-c3ccc4ccc([C@H](O)C5CC(F)(F)C5)cc4n3)cnc2n1 (single isomer, unassigned) [Compound D1R] | 10.09 | 9.22 |
| Cn1cnc(-c2ccc3cc(C(O)C4CC(F)(F)C4)sc3n2)cc1=O (stereo not shown) [Compound B49, 6-(2-((3,3-difluorocyclobutyl)(hydroxy)methyl)thieno[2,3-b]pyridine-6-yl)-3-methylpyrimidin-4(3H)-one] | 9.13 | 9.22 |
| Cn1cc2cc(-c3ccc4c(N)c([C@@H](O)C5CC(F)(F)C5)sc4n3)cnc2n1 (single isomer, unassigned) [Compound B95S] | 8.02 | 8.19 |
| Cc1nc2ccc(-c3ccc4cc([C@H](O)C5CC(F)(F)C5)sc4n3)cc2o1 (single isomer, unassigned) [Compound B51R] | 9.45 | 9.79 |
| COCC[C@@H](O)c1cc2ccc(-c3cnc4nn(C)cc4c3)cc2s1 (single isomer, unassigned) [Compound B59R] | 8.11 | 8.32 |
| OC1(c2cc3ccc(-c4cnc5[nH]nnc5c4)nc3s2)CC(F)(F)C1 [Compound C55] | 8.80 | 9.09 |
| Cn1cc2cc(-c3ccc4cc(C(O)C5CCOC5)sc4n3)cnc2n1 (stereo not shown) [Compound B19] | 9.77 | 9.27 |
| Cn1cc2cc(-c3cnc4sc([C@H](O)C5CC(F)(F)C5)cc4c3)cnc2n1 (single isomer, unassigned) [Compound B77R] | 8.89 | 8.31 |
| Cc1c2ccc(-c3cnc4nn(C)cc4c3)nc2sc1[C@]1(O)C[C@@H](C(F)(F)F)C1 [Compound C78C, cis-1-(3-methyl-6-(2-methyl-2H-pyrazolo[3,4-b]pyridin-5-yl)thieno[2,3-b]pyridin-2-yl)-3-(trifluoromethyl)cyclobutanol] | 8.62 | 8.99 |
| Cn1cc2cc(-c3ccc4cc([C@@H](O)C56CC(C(F)(F)F)(C5)C6)sc4n3)cnc2n1 (single isomer, unassigned) [Compound B91S] | 8.63 | 7.46 |
| Cc1cn2ccc(-c3ccc4cc([C@H](O)C5CC(F)(F)C5)sc4n3)cc2n1 (single isomer, unassigned) [Compound B55R] | 9.18 | 9.51 |
| Cn1cc2cc(-c3ccc4cc(C(O)C5CCCC5)sc4c3)cnc2n1 (stereo not shown) [Compound B58, cyclopentyl(6-(2-methyl-2H-pyrazolo[3,4-b]pyridin-5-yl)-1-benzothiophen-2-yl)methanol] | 8.60 | 9.31 |
| Cc1c(C2(O)CC(F)(F)C2)sc2nc(-c3cnc4nn(C)cc4c3)ccc12 [Compound C77, 3,3-difluoro-1-(3-methyl-6-(2-methyl-2H-pyrazolo[3,4-b]pyridin-5-yl)thieno[2,3-b]pyridin-2-yl)cyclobutanol] | 8.04 | 8.11 |
| Cc1cn2cc(-c3ccc4cc([C@H](O)C5CC(F)(F)C5)sc4n3)ccc2n1 (single isomer, unassigned) [Compound B48R] | 8.75 | 9.40 |
| CC(C)[C@@H](O)c1cc2ccc(-c3cnc4nn(C)cc4c3)nc2s1 (single isomer, unassigned) [Compound B24R] | 9.21 | 9.59 |
| Cn1cc2cc(-c3ccc4cc([C@H](CO)C5CC(F)(F)C5)sc4n3)cnc2n1 (single isomer, unassigned) [Compound B80S] | 9.47 | 8.94 |
| Cn1nnc2cc(-c3ccc4cc([C@]5(O)C[C@@H](OC(F)(F)F)C5)sc4n3)cnc21 [Compound C101C, cis-1-(6-(3-methyl-3H-[1,2,3]triazolo[4,5-b]pyridin-6-yl)thieno[2,3-b]pyridin-2-yl)-3-(trifluoromethoxy)cyclobutanol] | 9.07 | 9.30 |
| Cn1cnc(-c2ccc3cc([C@H](O)C4CC(F)(F)C4)sc3n2)cc1=O (single isomer, unassigned) [Compound B49R] | 9.14 | 9.59 |

The next lines start with the values.

| pIC50 (15-PGDH in A549 cells) | pIC50 [1] | SMILES |
| --- | --- | --- |
| 8.54 | 9.09 | CO[C@]1(C)C[C@@](O)(c2nc3ccc(-c4cnc5nn(C)cc5c4)nc3s2)C1 (single isomer, unassigned) [Compound C125C, cis-3-methoxy-3-methyl-1-(5-(2-methyl-2H-pyrazolo[3,4-b]pyridin-5-yl)[1,3]thiazolo[5,4-b]pyridin-2-yl)cyclobutanol] |
| 7.18 | 7.00 | Cn1cc(-c2ncc3cc([C@]4(O)C[C@@H](C(F)(F)F)C4)sc3n2)cn1 [Compound C120C, cis-1-(2-(1-methyl-1H-pyrazol-4-yl)thieno[2,3-d]pyrimidin-6-yl)-3-(trifluoromethyl)cyclobutanol] |
| 8.98 | 9.42 | COCCC(O)c1cc2ccc(-c3cnc4nn(C)cc4c3)nc2s1 (stereo not shown) [Compound B29, 3-methoxy-1-(6-(2-methyl-2H-pyrazolo[3,4-b]pyridin-5-yl)thieno[2,3-b]pyridin-2-yl)propan-1-ol] |
| 9.24 | 7.54 | Cn1cc2cc(-c3ccc4cc([C@@H](O)C56CC(C5)C6)sc4n3)cnc2n1 (single isomer, unassigned) [Compound B87S] |
| 7.88 | 8.11 | Cn1cc2cc(-c3ccc4sc([C@]5(O)C[C@@H](C(F)F)C5)cc4n3)cnc2n1 [Compound C84C, cis-3-(difluoromethyl)-1-(5-(2-methyl-2H-pyrazolo[3,4-b]pyridin-5-y1)thieno[3,2-b]pyridin-2-yl)cyclobutanol] |
| 9.29 | 9.28 | CO[C@H]1C[C@H]([C@@H](O)c2cc3ccc(-c4cnc5nn(C)cc5c4)nc3s2)C1 (single isomer, unassigned) [Compound B88RT] |
| 8.84 | 8.70 | CO[C@H]1C[C@](O)(c2cc3cnc(-c4cnc5nn(C)cc5c4)nc3s2)C1 [Compound C94C, cis-3-methoxy-1-(2-(2-methyl-2H-pyrazolo[3,4-b]pyridin-5-yl)thieno[2,3-d]pyrimidin-6-yl)cyclobutanol] |
| 10.23 | 9.55 | Cn1cc2cc(-c3ccc4cc(C5(O)CC6(CC6)C5)sc4n3)cnc2n1 [Compound C61, 5-(6-(2-methyl-2H-pyrazolo[3,4-b]pyridin-5-yl)thieno[2,3-b]pyridin-2-yl)spiro[2.3]hexan-5-o1] |
| 9.80 | 9.14 | CO[C@]1(C)C[C@](O)(c2cc3ccc(-c4cnc5nn(C)cc5c4)nc3s2)C1 (single isomer, unassigned) [Compound C59T, trans-3-methoxy-3-methyl-1-(6-(2-methyl-2H-pyrazolo[3,4-b]pyridin-5-yl)thieno[2,3-b]pyridin-2-yl)cyclobutanol] |
| 9.17 | 9.52 | Cn1cc2cc(-c3ncc4cc([C@]5(O)C[C@@H](OC(F)(F)F)C5)sc4n3)cnc2n1 [Compound C100C, cis-1-(2-(2-methyl-2H-pyrazolo[3,4-b]pyridin-5-yl)thieno[2,3-d]pyrimidin-6-yl)-3-(trifluoromethoxy)cyclobutanol] |
| 7.62 | 7.98 | CO[C@]1(C)C[C@@](O)(c2cc3cnc(-c4cnc5c(c4)nnn5C)nc3s2)C1 (single isomer, unassigned) [Compound C121C] |
| 7.72 | 8.75 | Cn1cc2cc(-c3ccc4cc(C5(O)CCC5)sc4n3)cnc2n1 [Compound C21, 1-(6-(2-methyl-2H-pyrazolo[3,4-b]pyridin-5-yl)thieno[2,3-b]pyridin-2-yl)cyclobutanol] |
| 7.80 | 8.70 | O[C@]1(c2cc3cnc(-c4cnc5nccn5c4)nc3s2)C[C@H](C(F)(F)F)C1 [Compound C124C, cis-1-(2-(imidazo[1,2-a]pyrimidin-6-yl)thieno[2,3-d]pyrimidin-6-yl)-3-(trifluoromethyl)cyclobutanol] |
| 8.07 | 8.47 | Cn1cc2cc(-c3ncc4nc([C@]5(O)C[C@@H](C(F)F)C5)sc4n3)cnc2n1 [Compound C109C] |
| 8.46 | 7.49 | Cn1cc2cc(-c3ccc4cc([C@@]5(O)CCC5(C)C)sc4n3)cnc2n1 (single isomer, unassigned) [Compound C65R] |
